Assay [1] concerns MT4. Description: Induction of apoptosis in human MT4 cells at 0.9 uM after 24 hrs by propidium iodide staining based FACS flow cytometry (reference value: 2.3%). Type of assay: functional.
Assay [2] is described as follows: Cytotoxic activity against human U937 cells assessed as reduction in cell viability after 72 hrs by MTT assay. Type of assay: functional, U-937. On the technique in general: Formazan colour is commonly taken as a measure of viable cells.
Assay [3] relates to MT4. Description: Induction of apoptosis in human MT4 cells at 0.9 uM after 48 hrs by propidium iodide staining based FACS flow cytometry (reference value: 3.5%). Type of assay: functional. For orientation: Flow cytometry measures light scatter and fluorescence of single cells or particles in a stream.
In assay [4] the test system is MT4. Description: Induction of apoptosis in human MT4 cells at 0.9 uM after 72 hrs by propidium iodide staining based FACS flow cytometry (reference value: 5.5%). It counts as functional.
Assay [5] has as its system MT4. Description: Cytotoxic activity against human MT4 cells assessed as reduction in cell viability after 72 hrs by MTT assay. It counts as functional.
Assay [6] can be described thus: Cytotoxic activity against human CEM13 cells assessed as reduction in cell viability after 72 hrs by MTT assay. It counts as functional.

For `COc1cc2c(cc1O)[C@@H]1OC[C@@H]3CC(C(C)C)=CC2[C@@]31C` (some centres undefined), the Activity in assay [1] was found to be 12.8%; in assay [3], 16.3%; in assay [4], 27.7%. Besides, the CTD50 in assay [2] came out at 50 µM; in assay [5] it was 0.93 µM; in assay [6] it was 93.3 µM.

With `COc1cc2c(cc1O)C1C=C(C(C)C)C[C@H]3CO[C@@H]2[C@@]13C` (some centres undefined), the CTD50 was 210 µM in assay [2], 150 µM in assay [5] and 136.7 µM in assay [6].

Consider `COc1cc2c(c(OC)c1O)C1C=C(C(C)C)C[C@H]3CO[C@@H]2[C@@]13C` (some centres undefined), for which the CTD50 in assay [2] turned out to be 136.4 µM; in assay [5], 224.2 µM; in assay [6] it was 157.6 µM.

Turning to `COc1cc2c(c(OC)c1OC)C1C=C(C(C)C)C[C@H]3CO[C@@H]2[C@@]13C` (some centres undefined), the CTD50 is 66.9 µM in assay [2], 200.6 µM in assay [5] and 49.4 µM in assay [6].

Consider `COc1cc(OC)c2c(c1OC)C1C=C(C(C)C)C[C@H]3CO[C@@H]2[C@@]13C` (some centres undefined), for which the figures for the CTD50 in assay [2], in assay [5] and in assay [6] were 116.3 µM, more than 250 µM and 81.4 µM, respectively.

Consider `CC(C)C1=CC2Oc3cc(O)ccc3[C@@H]3OC[C@H](C1)[C@]23C` (some centres undefined), for which the values for the CTD50 in assay [2], in assay [5] and in assay [6] were 164.3 µM, 150.3 µM and 111.9 µM, respectively.

For `COc1cccc2c1C(=O)c1c(O)c3c(c(O)c1C2=O)C[C@@](O)(C(=O)CO)C[C@@H]3O[C@H]1C[C@H](N)[C@H](O)[C@H](C)O1` [DOXORUBICIN], the CTD50 in assay [2] is 0.17 µM; in assay [5] it was 2.76 µM; in assay [6] it was 3.44 µM.

These data come from ChEMBL document CHEMBL3397014, “The short way to chiral compounds with hexahydrofluoreno[9,1-bc]furan framework: synthesis and cytotoxic activity” (2015).
